Measured values reported in patent publication US11400058B2, “Intravenous formulations of coenzyme Q10 (CoQ10) and methods of use thereof” (Berg LLC, priority 2010, dated 2022).

Legend:
[1] = system: liver clone of a malignant chloroma; test: Effect on liver cancer: liver clone of malignant chloroma in rats, alone and with cyclophosphamide; assay type: in vivo, Fischer 344 rats; settings: Group III, cyclophosphamide 35 mg/kg once
Method: Effect of CoQ10 IV Formulation on Liver Cancer: The ability of a Coenzyme Q10 formulation of the present invention to inhibit proliferation of liver tumor cells was examined in an animal model. Twenty-four Fischer 344 rats were injected intraperitoneally with the liver clone of a malignant chloroma Rats were then randomized into groups of 6 rats each. Group 1 served as a control, treated with 0.5 mL of phosphate buffered saline on Monday, Wednesday and Friday for three (3) weeks. Group II received a sterile nanodispersion by IP injection of 20 mg of Coenzyme Q10. […] The formulation was administered by IP injection in a volume of 0.5 mL on Monday, Wednesday and Friday for three (3) weeks. Group III received 35 mg/kg of cyclophosphamide once. Group IV received 20 mg of the 4:3:1.5 CoQ10 formulation in 0.5 mL on Monday, Wednesday and Friday for three (3) weeks. In addition, they received 35 mg/kg of cyclophosphamide once.

[2] = system: lung clone of a malignant chloroma; test: Effect on lung tumors: lung clone of malignant chloroma in rats, alone and with cyclophosphamide; assay type: in vivo, Fischer 344 rats; settings: Group III, cyclophosphamide 35 mg/kg IP once
Method: Twenty-four Fischer 344 rats were injected intraperitoneally with the lung clone of a malignant chloroma. The rats were then randomized into groups of 6 rats each. Group 1 served as a control, treated with 0.5 mL of phosphate buffered saline (PBS) on Monday, Wednesday and Friday for three (3) weeks. […] The formulation was administered by IP injection in a volume of 0.5 mL on Monday, Wednesday, and Friday for three (3) weeks. Group III received 35 mg/kg cyclophosphamide by IP injection once.

[3] = system: MiaPACA2; test: MiaPACA2 pancreatic carcinoma cells injected in the pancreas of NSG mice, survival; assay type: in vivo; settings: doxorubicin group
Method: Effect of CoQ10 IV Formulation on Pancreatic Carcinoma Cell Line: MiaPACA2, a pancreatic cell line was employed on NSG mice. Mice were anesthetized in a sterile environment where they had been housed. Once animals reached surgical-plane anesthesia, mice were laid down, and the abdominal area was palpated. The pancreas was located behind the stomach, between the spleen, and the stomach, both of which are palpable organs. Thereafter, […] were injected in the pancreas by gently manipulating the animal to reach the area behind the stomach. All of these procedures were performed under sterile conditions in a biosafety cabinet, and the animals were housed under strict sterile conditions as well to avoid opportunistic infections. After injection of cells, animals were closely monitored daily. Animals were then randomized into 8 groups receiving a different dose of the CoQ10 N formulation. […] The formulation was administered intravenously via tail veins with dosing every other day three times per week for up to 28 days. The summary of results are depicted in the following graphs (FIGS. 49-56).

[4] = Combination therapy with doxorubicin, survival of rodents; assay type: in vivo; settings: administered intraperitoneally, by itself, in rodents
Method: Combination Therapy With CoQ10 IV Formulation and Chemotherapy Adjuvant Doxorubicin, a powerful chemotherapeutic, is lethal when administered intraperitoneally, by itself, in rodents. CoQ10 IV Formulation was administered in combination with doxorubicin.

SMILES | rats remained disease-free [1] | the other three rats survived up to day [1] | 4 rats survived up to day [2] | rats remained disease-free [2] | survivors at 60 days [3] | lethality [4]
O=P1(N(CCCl)CCCl)NCCCO1 (stereo not drawn) [chemotherapy, cyclophosphamide] | 1 rat | 34 days | 35 days | 1 rat | – | –
COc1cccc2c1C(=O)c1c(O)c3c(c(O)c1C2=O)C[C@@](O)(C(=O)CO)C[C@@H]3O[C@H]1C[C@H](N)[C@H](O)[C@H](C)O1 [doxorubicin] | – | – | – | – | 0 of 30 | lethal
